Source: the supplement of paper PMC8612539
In brackets after ≈: the same amount, converted by molar mass.

Test system: Pasteurella multocida
Test: minimum inhibitory concentration (MIC)
Protocol: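 Broth microdilution MIC (Sensititre BOPO7F bovine plate, CLSI methods) of 19 antimicrobials against field isolates of P. multocida, M. haemolytica, H. somni (deep nasopharyngeal swabs) and E. coli, Enterococcus spp. (rectal swabs) from weaned dairy heifers. Incubation 16-24 h at 35 C. MIC is the lowest concentration preventing visible growth. Values with <= or > lie at the tested range limits. Trimethoprim-sulfamethoxazole is given as the trimethoprim component of a 1:19 mixture.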

CN1C[C@@H]2C[C@H]1CN2c1cc2c(cc1F)c(=O)c(C(=O)O)cn2C1CC1 [Danofloxacin]
Conditions	minimum inhibitory concentration [µg/mL]
isolate (source animal id): 10	> 1
isolate (source animal id): 11	1 (≈ 2.8 µM)
isolate (source animal id): 12	> 1
isolate (source animal id): 19	> 1
isolate (source animal id): 23	1 (≈ 2.8 µM)
isolate (source animal id): 26	> 1
isolate (source animal id): 98	> 1
isolate (source animal id): 104	1 (≈ 2.8 µM)
isolate (source animal id): 115	≤ 0.12
isolate (source animal id): 117	> 1
isolate (source animal id): 118	> 1
isolate (source animal id): 121	≤ 0.12
isolate (source animal id): 124	> 1
isolate (source animal id): 125	> 1
isolate (source animal id): 128	≤ 0.12
isolate (source animal id): 131	> 1
isolate (source animal id): 135	> 1
isolate (source animal id): 136	≤ 0.12
isolate (source animal id): 140	> 1
isolate (source animal id): 144	1 (≈ 2.8 µM)
isolate (source animal id): 146	1 (≈ 2.8 µM)
isolate (source animal id): 150	≤ 0.12
isolate (source animal id): 151	≤ 0.12
isolate (source animal id): 153	1 (≈ 2.8 µM)
isolate (source animal id): 155	> 1
isolate (source animal id): 157	> 1
isolate (source animal id): 160	≤ 0.12
isolate (source animal id): 164	≤ 0.12
isolate (source animal id): 165	≤ 0.12
isolate (source animal id): 167	≤ 0.12
isolate (source animal id): 168	> 1
isolate (source animal id): 169	≤ 0.12
isolate (source animal id): 170	≤ 0.12
isolate (source animal id): 171	≤ 0.12
isolate (source animal id): 172	≤ 0.12
isolate (source animal id): 173	> 1
isolate (source animal id): 174	≤ 0.12
isolate (source animal id): 175	≤ 0.12
isolate (source animal id): 176	≤ 0.12
isolate (source animal id): 177	≤ 0.12
isolate (source animal id): 178	≤ 0.12
isolate (source animal id): 179	≤ 0.12
isolate (source animal id): 182	≤ 0.12
isolate (source animal id): 192	≤ 0.12
isolate (source animal id): 193	≤ 0.12
isolate (source animal id): 195	≤ 0.12
isolate (source animal id): 196	≤ 0.12
isolate (source animal id): 197	≤ 0.12
isolate (source animal id): 198	> 1
isolate (source animal id): 199	≤ 0.12
isolate (source animal id): 200	≤ 0.12
isolate (source animal id): 201	≤ 0.12
isolate (source animal id): 203	≤ 0.12
isolate (source animal id): 204	≤ 0.12
isolate (source animal id): 205	> 1
isolate (source animal id): 206	≤ 0.12
isolate (source animal id): 207	≤ 0.12
isolate (source animal id): 208	≤ 0.12
isolate (source animal id): 209	≤ 0.12
isolate (source animal id): 210	> 1
isolate (source animal id): 213	≤ 0.12
isolate (source animal id): 216	≤ 0.12
isolate (source animal id): 223	> 1
isolate (source animal id): 227	≤ 0.12
isolate (source animal id): 229	> 1
isolate (source animal id): 233	> 1
isolate (source animal id): 234	> 1
isolate (source animal id): 237	> 1
isolate (source animal id): 241	> 1
isolate (source animal id): 245	> 1
isolate (source animal id): 247	1 (≈ 2.8 µM)
isolate (source animal id): 250	> 1
isolate (source animal id): 254	> 1
isolate (source animal id): 255	> 1
isolate (source animal id): 258	≤ 0.12
isolate (source animal id): 261	> 1
isolate (source animal id): 262	> 1
isolate (source animal id): 269	0.25 (≈ 0.7 µM)
isolate (source animal id): 270	> 1
isolate (source animal id): 274	> 1
isolate (source animal id): 275	> 1
isolate (source animal id): 276	> 1
isolate (source animal id): 277	0.25 (≈ 0.7 µM)
isolate (source animal id): 278	> 1
isolate (source animal id): 279	1 (≈ 2.8 µM)
isolate (source animal id): 280	> 1
isolate (source animal id): 284	> 1
isolate (source animal id): 285	> 1
isolate (source animal id): 287	> 1
isolate (source animal id): 290	≤ 0.12
isolate (source animal id): 294	≤ 0.12
isolate (source animal id): 295	≤ 0.12
isolate (source animal id): 296	> 1
isolate (source animal id): 307	≤ 0.12
isolate (source animal id): 310	≤ 0.12
isolate (source animal id): 311	≤ 0.12
isolate (source animal id): 312	> 1
isolate (source animal id): 313	> 1
isolate (source animal id): 315	> 1
isolate (source animal id): 316	> 1
